Measured values published in PubChem BioAssay (NCI).
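All cell lines were grown in 96-well plates and treated with compound for 48 hours. TGI: total growth inhibition.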

Legend:
Experiment in all cases: NCI-60 cell line screen, 48 h
786-0 renal = test system: 786-0 renal
A498 renal = test system: A498 renal
CAKI-1 renal = test system: CAKI-1 renal
DU-145 prostate = test system: DU-145 prostate
EKVX NSCLC = test system: EKVX NSCLC
HOP-62 NSCLC = test system: HOP-62 NSCLC
HOP-92 NSCLC = test system: HOP-92 NSCLC
HS 578T breast = test system: HS 578T breast
HT29 colon = test system: HT29 colon
K-562 leukemia = test system: K-562 leukemia
LOX IMVI melanoma = test system: LOX IMVI melanoma
M14 melanoma = test system: M14 melanoma
MDA-MB-435 = test system: MDA-MB-435
MOLT-4 leukemia = test system: MOLT-4 leukemia
NCI-H460 lung = test system: NCI-H460 lung
NCI-H522 lung = test system: NCI-H522 lung
OVCAR-5 ovarian = test system: OVCAR-5 ovarian
SK-MEL-5 melanoma = test system: SK-MEL-5 melanoma
SW-620 colon = test system: SW-620 colon
UACC-62 melanoma = test system: UACC-62 melanoma

SMILES | TGI (786-0 renal) [µM] | TGI (A498 renal) [µM] | TGI (CAKI-1 renal) [µM] | TGI (DU-145 prostate) [µM] | TGI (EKVX NSCLC) [µM] | TGI (HOP-62 NSCLC) [µM] | TGI (HOP-92 NSCLC) [µM] | TGI (HS 578T breast) [µM] | TGI (HT29 colon) [µM] | TGI (K-562 leukemia) [µM] | TGI (LOX IMVI melanoma) [µM] | TGI (M14 melanoma) [µM] | TGI (MDA-MB-435) [µM] | TGI (MOLT-4 leukemia) [µM] | TGI (NCI-H460 lung) [µM] | TGI (NCI-H522 lung) [µM] | TGI (OVCAR-5 ovarian) [µM] | TGI (SK-MEL-5 melanoma) [µM] | TGI (SW-620 colon) [µM] | TGI (UACC-62 melanoma) [µM]
O=[N+]([O-])c1cccc2nccc(NCCN3CCOCC3)c12 | > 57.5 | 29.3 | 20.2 | > 100 | > 53.8 | 35.6 | > 100 | 57.6 | 44.4 | > 56.7 | 46.6 | 34 | 81.8 | > 56.5 | 32.5 | 22 | 38.4 | 22.3 | 33.7 | 
CC(Oc1ccccc1Cl)C(=O)NN1C(=O)CC(=O)N(c2ccc(Cl)cc2)C1=S (stereo not drawn) | > 100 | 72.9 | > 100 | > 100 | > 100 | > 100 | 63.2 | > 100 | > 100 | > 100 | > 100 | > 100 | > 100 | 95.8 | > 100 | > 100 | > 100 | > 100 | > 100 | > 100
Cc1cc(NS(=O)(=O)c2ccc(N=[N+]([O-])c3ccc(S(=O)(=O)Nc4cc(C)on4)cc3)cc2)no1 | > 100 | > 100 | > 100 | > 100 | > 100 | > 100 | > 100 | > 100 | > 100 | > 100 | > 100 | > 100 | > 100 | > 100 |  | > 100 | > 100 | > 100 |  | > 100
COc1cc(OC)c2c(=O)c3cccc(C)c3n(C)c2c1 | > 100 | > 100 | > 100 | > 100 | > 100 | > 100 | > 100 | > 100 | > 100 | 59.4 | > 100 | > 100 | > 100 | > 100 | > 100 | > 100 | > 100 | 60.6 | > 100 | > 100
COC(=O)[C@@](NC(=O)OCc1ccccc1)([C@H](C)O)C(F)(F)F | > 100 | > 100 | > 100 | > 100 | > 100 | > 100 | > 100 | > 100 | > 100 | > 100 | > 100 | > 100 | > 100 | > 100 | > 100 | > 100 | > 100 | > 100 | > 100 | > 100
COc1ccc(COCC[C@H](C)OC2OC(CO)C(O)C(O)C2O)cc1 (stereo partly drawn) | > 100 | > 100 | > 100 | > 100 | > 100 | > 100 | > 100 | > 100 | > 100 | > 100 | > 100 | > 100 | > 100 | > 100 | > 100 | > 100 | > 100 | > 100 | > 100 | > 100
O=CNc1ccccc1OCCOc1ccccc1NC=O | > 100 | > 100 | > 100 | > 100 | > 100 | > 100 | > 100 | > 100 | > 100 | > 100 | > 100 | > 100 | > 100 | > 100 | > 100 | > 100 | > 100 | > 100 | > 100 | > 100
Cc1c(/C=N/NC(=S)N2CCCCC2)c(=O)n(-c2ccccc2)n1C | > 100 | > 100 | > 100 | > 100 | > 100 | > 100 | > 100 | > 100 | > 100 | > 100 | > 100 | > 100 | > 100 | > 100 | > 100 | > 100 | > 100 | > 100 | > 100 | > 100
CC(C)(O)c1cc2c(cc1C(C)(C)O)-c1ccccc1-2 | > 100 | > 100 | > 100 | > 100 | > 100 |  | > 100 | > 100 |  | > 100 | > 100 | > 100 | > 100 | > 100 | > 100 | > 100 | > 100 | > 100 | > 100 | > 100
O=C1Cc2cn[nH]c2-c2ccccc2N1 | > 100 | > 100 | > 35.2 | > 100 | 95.4 | > 100 | > 30.7 | > 100 | > 100 | 56.6 | 33.6 | > 55.2 | 59.7 | 49.7 | > 69.8 | 65.8 | > 57.5 | > 59.7 | 32.4 | 63.5
CCOC(=O)C(=CNc1ccc(F)c(F)c1)C(=O)OCC | > 100 | > 100 | > 100 | > 100 | > 100 | > 100 | > 100 | > 100 | > 100 | > 100 | > 100 | > 100 | > 100 | > 100 | > 100 | > 100 | > 100 | > 100 | > 100 | 
O=C(NCCNCCNC(=O)c1cc(-c2ccccc2)nc2ccccc12)c1cc(-c2ccccc2)nc2ccccc12 | 3.39 | 6.54 | 24.1 | 6.56 | 11.7 | 3.26 | 6.17 | 6.86 | 3.24 | 3.99 | 3.05 | 3.12 | 3.34 | 5.52 | 2.97 | 6.97 | 4.91 | 3.18 | 3.25 | 5.77
COc1cc2cc(C(=O)N3CC(CCl)c4ccc([N+](C)(C)Cc5ccccc5[N+](=O)[O-])cc43)[nH]c2c(OC)c1OC (stereo not drawn) | > 36.3 | 1.37 | 14.5 | > 100 | 21.3 | 18.1 | > 29.8 | 11.7 | > 21.8 | 12.5 | 17.1 | 19 | 5.17 | 2.74 |  | 0.677 | > 31.3 | 3.3 | > 75.9 | 2.76
CCCCCCCCCCCCCCCCNC(=O)/C(=C\c1ccc(Cl)c(Cl)c1)NC(=O)c1ccccc1 | 47.4 | 35.5 | > 100 | 70.7 | > 100 | 51.6 | 34.7 | > 100 | > 100 | 64.3 | 54.2 | > 100 | > 100 | 37.5 | > 100 | > 100 | > 100 | > 100 | > 100 | 
O=[N+]([O-])/C(Cl)=C(/C(Cl)=C(Cl)Cl)N1CCOCC1 | 10 | 7.79 | 12.7 | 26.9 | 21.6 | 2.5 | 4.88 | 14.9 | 14.2 | 12.8 | 17.3 | 7.66 | 7.64 | 7.32 | 18.4 | 4.73 | 22 | 3.48 | 11.7 | 5.62
CC1=NN(c2nc(N)nc(/C(C#N)=C\c3ccc(-c4ccc([N+](=O)[O-])cc4)o3)n2)C(C)(C)C1 | > 100 | > 100 | > 100 | > 100 | > 100 | 67.5 | > 100 | > 100 | > 100 | > 100 | > 100 | > 100 | > 100 | > 100 | > 100 | > 100 | > 100 | > 100 | > 100 | > 100
CC(Oc1ccc(Cl)cc1Cl)C(=O)NN1C(=O)CC(=O)N(c2ccccc2)C1=S (stereo not drawn) | > 100 | 95.1 | > 100 | > 100 | > 100 | > 100 | 84 | > 100 | > 100 | > 100 | > 100 | > 100 | > 100 | > 100 | > 100 | > 100 | > 100 | > 100 | > 100 | > 100
CN=c1sc2nc(C#N)c(C#N)nc2n1C | > 60 | 35.2 | 60.3 | > 85.4 | 73.8 | 42.1 | 37.7 | > 100 | 26 | > 60 | 46.5 | > 58.9 | 52.1 | > 100 | 35.7 | 31.5 | 51.6 | 35.4 | 36.2 | 40.6
CC(C)[Si]1(C(C)C)OCC2OC(n3ccc(=O)[nH]c3=O)C([Se]c3ccccc3)C2O[Si](C(C)C)(C(C)C)O1 (stereo not drawn) | 7.77 | 18.9 | 24.3 | 24.7 | 17.5 | 25.2 | 13 | 5.46 | 3.99 |  | 2.45 | 21.8 | 17.3 | > 22.9 | 3.89 | 4.36 | 22.8 | 9.59 | 6.62 | 14.8
O=[N+]([O-])c1ccc(-c2nn3c(C45CC6CC(CC(C6)C4)C5)nnc3s2)c(Cl)c1 | > 100 | > 100 | > 100 | > 100 | > 100 | > 100 | > 100 | > 100 | > 100 | > 100 | > 100 | > 100 | > 100 | > 100 | > 100 | > 100 | > 100 | > 100 | > 100 | > 100
CC(C)(C)OC(=O)N1CCCC1C(=O)NC(c1ccccc1)c1ccccc1 (stereo not drawn) | > 100 | > 100 | > 100 | > 100 | > 100 | > 100 | > 100 | > 100 | > 100 | > 100 | > 100 | > 100 | > 100 | > 100 | > 100 | > 100 | > 100 | > 100 | > 100 | > 100
CC(C)(C)O/N=C/c1cc(NC(=S)c2ccsc2)ccc1Cl | 31.6 | 24.9 | 30.2 | 17.1 | 41.1 | 29.4 | 37.7 | 57 | 26.1 |  | 30.7 | 31.4 | 38.5 | 26.1 |  | 33.6 | 32.9 | 16.9 | 55.2 | 28.8
Cc1[nH]c(-c2ccccc2)c2nc(N(C)C)oc(=O)c12 | > 100 | > 100 | > 100 | > 100 | > 100 | > 100 | > 100 | > 100 | > 100 | > 100 | > 100 | > 100 | > 100 | > 100 | > 100 | > 100 | > 100 | > 100 | > 100 | > 100
C=CCN1CCC(c2cc(C(=O)OCC)[nH]c2-c2cc(C)no2)C1=O (stereo not drawn) | > 100 | > 100 | > 100 | > 100 | > 100 | > 100 | > 100 | > 100 | > 100 | > 100 | > 100 | > 100 | > 100 | > 100 | > 100 |  | > 100 | > 100 | > 100 | > 100
